Assay results as given in EP0908457B1, “3-(1,2-benzisothiazol- and isoxazol-5-Y1)-2,4(1H,3H)-pyrimidinedione or thione and 3-(1,2-benzisothiazol- and isoxazol-5-y1)-4(3H)-pyrimidinone or thione herbicidal agents” (BASF AKTIENGESELLSCHAFT, priority 1997, dated 1999).

How the values were obtained:
[1] = test system: Echinochloa oryzoides (Ard.) Fritsch.; assay: Preemergence weed control under flooded paddy conditions, ECHORC (Watergrass (Calif.)); assay type: in vivo; details: flooded paddy, rated three to four weeks after treatment; for ECHORC herbicidal effect rating / ECHORC herbicidal rating: preemergence; for herbicidal effect rating, ECHORC: preemergence weeds; on herbicidal effect rating, ECHORC: meaning of each grade not given here
Cyperus iria = assay: Preemergence weed control under flooded paddy conditions, CYPIR (Rice Flatsedge); assay type: in vivo; details: flooded paddy, rated three to four weeks after treatment; for CYPIR herbicidal effect rating / CYPIR herbicidal rating: preemergence; for herbicidal effect rating, CYPIR: preemergence weeds; on herbicidal effect rating, CYPIR: meaning of each grade not given here
Sagittaria pygmaea, L. = assay: Preemergence weed control under flooded paddy conditions, SAGPY (Arrowhead (Pygmaea)); assay type: in vivo; details: flooded paddy, rated three to four weeks after treatment; for SAGPY herbicidal effect rating / SAGPY herbicidal rating: preemergence; for herbicidal effect rating, SAGPY: preemergence weeds; on herbicidal effect rating, SAGPY: meaning of each grade not given here
[2] = test system: Monochoria vaginalis, Presl.; assay: Preemergence weed control under flooded paddy conditions, MOOVA (Monochoria); assay type: in vivo; details: flooded paddy, rated three to four weeks after treatment; for MOOVA herbicidal effect rating / MOOVA herbicidal rating: preemergence; for herbicidal effect rating, MOOVA: preemergence weeds; on herbicidal effect rating, MOOVA: meaning of each grade not given here
[3] = test system: Oryza sativa, (L.) Tebonnet; assay: Rice tolerance to post-transplant applications under flooded paddy conditions (Example 187), ORYSAT (Rice, Tebonnet); details: rated three to four weeks after treatment
[4] = test system: Cyperus serotinus, Rottb.; assay: Preemergence weed control under flooded paddy conditions, CYPSE (Flatsedge); assay type: in vivo; details: rated three to four weeks after treatment; for CYPSE herbicidal effect rating / CYPSE herbicidal rating: preemergence; for herbicidal effect rating, CYPSE: preemergence weeds; on herbicidal effect rating, CYPSE: meaning of each grade not given here

COC(=O)/C=C/c1nsc2ccc(-n3c(=O)cc(C(F)(F)F)n(C)c3=O)cc12 [Example 279, 1,2-Benzisothiazole-3-acrylic acid, 5-[3,6-dihydro-3-methyl-2,6-dioxo-4-(trifluoromethyl)-1(2H)-pyrimidinyl]-, methyl ester, (E)-]
6.0: ECHORC herbicidal effect rating ([1]; Rate 0.2500 kg/ha) | CYPIR herbicidal effect rating (Cyperus iria; Rate 0.2500 kg/ha) | ORYSAT herbicidal effect rating ([3]; Rate 0.5000 kg/ha)
7.0: ECHORC herbicidal effect rating ([1]; Rate 0.5000 kg/ha)
5.0: CYPSE herbicidal effect rating ([4]; Rate 0.5000 kg/ha)
4.0: SAGPY herbicidal effect rating (Sagittaria pygmaea, L.; Rate 0.2500 kg/ha) | ORYSAT herbicidal effect rating ([3]; Rate 0.1250 kg/ha) | ORYSAT herbicidal effect rating ([3]; Rate 0.2500 kg/ha)
3.0: ORYSAT herbicidal effect rating ([3]; Rate 0.0620 kg/ha)
5.7: ECHORC herbicidal effect rating ([1]; Rate 0.0620 kg/ha)
8.0: MOOVA herbicidal effect rating ([2]; Rate 0.1250 kg/ha)
9.0: CYPIR herbicidal effect rating (Cyperus iria; Rate 0.5000 kg/ha) | SAGPY herbicidal effect rating (Sagittaria pygmaea, L.; Rate 0.5000 kg/ha) | MOOVA herbicidal effect rating ([2]; Rate 0.2500 kg/ha) | MOOVA herbicidal effect rating ([2]; Rate 0.5000 kg/ha)
0.0: ECHORC herbicidal effect rating ([1]; Rate 0.0320 kg/ha) | CYPIR herbicidal effect rating (Cyperus iria; Rate 0.0320 kg/ha) | CYPIR herbicidal effect rating (Cyperus iria; Rate 0.0620 kg/ha) | SAGPY herbicidal effect rating (Sagittaria pygmaea, L.; Rate 0.0320 kg/ha) | SAGPY herbicidal effect rating (Sagittaria pygmaea, L.; Rate 0.0620 kg/ha) | SAGPY herbicidal effect rating (Sagittaria pygmaea, L.; Rate 0.1250 kg/ha) | CYPSE herbicidal effect rating ([4]; Rate 0.0320 kg/ha) | CYPSE herbicidal effect rating ([4]; Rate 0.0620 kg/ha) | CYPSE herbicidal effect rating ([4]; Rate 0.1250 kg/ha)
2.0: CYPIR herbicidal effect rating (Cyperus iria; Rate 0.1250 kg/ha) | ORYSAT herbicidal effect rating ([3]; Rate 0.0320 kg/ha)
6.1: ECHORC herbicidal effect rating ([1]; Rate 0.1250 kg/ha)

Cn1c(C(F)(F)F)cc(=O)n(-c2ccc3snc(C(=O)NS(=O)(=O)Cc4ccc(Cl)cc4)c3c2)c1=O [Example 468, 1,2-Benzisothiazole-3-carboxamide, N-[(p-chlorobenzyl)sulfonyl]-5-[3,6-dihydro-3-methyl-2,6-dioxo-4-(trifluoromethyl)-1(2H)-pyrimidinyl]-]
2.0: CYPSE herbicidal rating ([4]; 0.0320 kg/ha)
6.0: CYPIR herbicidal rating (Cyperus iria; 0.0620 kg/ha) | CYPIR herbicidal rating (Cyperus iria; 0.1250 kg/ha) | MOOVA herbicidal rating ([2]; 0.0620 kg/ha) | CYPSE herbicidal rating ([4]; 0.0620 kg/ha)
9.0: ECHORC herbicidal rating ([1]; 0.1250 kg/ha) | ECHORC herbicidal rating ([1]; 0.2500 kg/ha)
5.0: CYPIR herbicidal rating (Cyperus iria; 0.0320 kg/ha) | CYPIR herbicidal rating (Cyperus iria; 0.2500 kg/ha) | SAGPY herbicidal rating (Sagittaria pygmaea, L.; 0.2500 kg/ha) | MOOVA herbicidal rating ([2]; 0.0320 kg/ha) | MOOVA herbicidal rating ([2]; 0.2500 kg/ha) | ORYSAT herbicidal rating (rice tolerance) ([3]; 0.1250 kg/ha) | ORYSAT herbicidal rating (rice tolerance) ([3]; 0.2500 kg/ha) | CYPSE herbicidal rating ([4]; 0.2500 kg/ha)
7.0: ECHORC herbicidal rating ([1]; 0.0320 kg/ha) | ECHORC herbicidal rating ([1]; 0.0620 kg/ha) | MOOVA herbicidal rating ([2]; 0.1250 kg/ha) | CYPSE herbicidal rating ([4]; 0.1250 kg/ha)
4.0: SAGPY herbicidal rating (Sagittaria pygmaea, L.; 0.0620 kg/ha) | SAGPY herbicidal rating (Sagittaria pygmaea, L.; 0.1250 kg/ha)
3.0: SAGPY herbicidal rating (Sagittaria pygmaea, L.; 0.0320 kg/ha) | ORYSAT herbicidal rating (rice tolerance) ([3]; 0.0320 kg/ha) | ORYSAT herbicidal rating (rice tolerance) ([3]; 0.0620 kg/ha)

Cn1c(C(F)(F)F)cc(=O)n(-c2ccc3snc(C(Cl)Cl)c3c2)c1=O [Example 114, 3-[3-(Dichloromethyl)-1,2-benzisothiazol-5-yl]-1-methyl-6-(trifluoromethyl)-2,4(1H,3H)-pyrimidinedione]
0.0: herbicidal effect rating, ECHORC ([1]; 0.0313 kg/ha) | herbicidal effect rating, ECHORC ([1]; 0.0625 kg/ha) | herbicidal effect rating, SAGPY (Sagittaria pygmaea, L.; 0.0313 kg/ha) | herbicidal effect rating, CYPSE ([4]; 0.0313 kg/ha) | herbicidal effect rating, CYPSE ([4]; 0.0625 kg/ha)
7.0: herbicidal effect rating, ORYSAT (rice tolerance) ([3]; 0.1250 kg/ha) | herbicidal effect rating, ORYSAT (rice tolerance) ([3]; 0.2500 kg/ha)
8.0: herbicidal effect rating, MOOVA ([2]; 0.2500 kg/ha)
9.0: herbicidal effect rating, CYPIR (Cyperus iria; 0.0313 kg/ha) | herbicidal effect rating, CYPIR (Cyperus iria; 0.0625 kg/ha) | herbicidal effect rating, CYPIR (Cyperus iria; 0.1250 kg/ha) | herbicidal effect rating, CYPIR (Cyperus iria; 0.2500 kg/ha) | herbicidal effect rating, MOOVA ([2]; 0.0313 kg/ha) | herbicidal effect rating, MOOVA ([2]; 0.0625 kg/ha) | herbicidal effect rating, MOOVA ([2]; 0.1250 kg/ha)
2.0: herbicidal effect rating, SAGPY (Sagittaria pygmaea, L.; 0.0625 kg/ha) | herbicidal effect rating, CYPSE ([4]; 0.1250 kg/ha)
4.0: herbicidal effect rating, ECHORC ([1]; 0.1250 kg/ha) | herbicidal effect rating, ORYSAT (rice tolerance) ([3]; 0.0313 kg/ha)
6.0: herbicidal effect rating, ECHORC ([1]; 0.2500 kg/ha) | herbicidal effect rating, SAGPY (Sagittaria pygmaea, L.; 0.1250 kg/ha) | herbicidal effect rating, SAGPY (Sagittaria pygmaea, L.; 0.2500 kg/ha) | herbicidal effect rating, ORYSAT (rice tolerance) ([3]; 0.0625 kg/ha) | herbicidal effect rating, CYPSE ([4]; 0.2500 kg/ha)
